# Assays:
# STZ-induced diabetes rat [1] = assay: STZ-induced diabetes rats: ocular protecting effect; type: in vivo, Sprague-Dawley (SD) rats; details: vs STZ control; single treated: metformin 500 mg/kg, YMJHT 400 mg/kg; daily 28 days
# Procedure: (§1) As the laboratory animals, Sprague-Dawley (SD), Slc:SD rats (6-week-old females, SLC, Shizuoka, Japan) were used, an experiment method was briefly illustrated in FIG. 5A, and the design of experimental groups is shown in FIG. 5B.
# (§2) 105 SD rats were purchased, and 21 days after STZ administration, only rats having uniform body weights ([…]) and blood sugar levels (257˜358 mg/dl) were selected. Among those, 8 rats per group were used in the experiment, and separate 8 rats were also prepared as the intact vehicle control (body weight: 200˜262 g; blood sugar level: 88˜100 mg/dl).
# (§3) STZ was diluted with 50 mM citrate buffer (pH 6.0), and the resultant diluent was peritoneally administered once at a dose of 60 mg/kg/5 ml to induce diabetes, and in the intact vehicle control, instead of STZ, the same dose of citrate buffer was solely administered in the same route.
# STZ-induced diabetes rat [2] = assay: STZ-induced diabetes rats: kidney protecting effect; type: in vivo, Sprague-Dawley (SD) rats; details: vs STZ control; single treated: metformin 500 mg/kg, YMJHT 400 mg/kg; daily 28 days
# Procedure: as §1, §2, §3
# (4) Kidney protecting effect: kidney weights, changes in blood BUN and creatinine, histopathological findings on kidney—numbers of degenerated renal tubules and glomeruli
# (§4) To clarify degrees of inducing diabetes and diabetic complications, blood sugar levels was measured at 21 days after the STZ administration and 28 days after the administration of a candidate material, and then a difference between them was estimated. Also, to minimize a difference between organ weights depending on a body weight, an absolute weight was measured, and then a ratio to the body weight, that is, a relative weight, was calculated.
# STZ-induced diabetes rat [3] = assay: STZ-induced diabetes rats: antioxidative defense system in kidney; type: in vivo, Sprague-Dawley (SD) rats; details: vs STZ control; single treated: metformin 500 mg/kg, YMJHT 400 mg/kg; daily 28 days
# Procedure: as §1, §2, §3
# (8) Change in antioxidative defense system in kidney: lipid peroxidation in kidney (nM of malondialdehyde (MDA)/g protein), endogenous antioxidant—glutathione (GSH) content (nM/g protein), antioxidant enzyme—Changes in catalase and superoxide dismutase (SOD) activities (U/mg protein)
# STZ-induced diabetes rat [4] = assay: STZ-induced diabetes rats: antidiabetic effect (blood sugar, pancreas); type: in vivo, Sprague-Dawley (SD) rats; details: vs STZ control, YMJHT 400 mg/kg
# Procedure: as §1, §2, §3
# (2) Antidiabetic effect: Change in blood sugar level, morphological change in pancreas tissue—changes in the number and diameter of pancreatic islets, and numerical changes in insulin and glucagon immunoreactive cells
# as §4
# STZ-induced diabetes rat [5] = assay: STZ-induced diabetes rats: antihyperlipidemic effect; type: in vivo, Sprague-Dawley (SD) rats; details: vs STZ control; single treated: metformin 500 mg/kg, YMJHT 400 mg/kg; daily 28 days
# Procedure: as §1, §2, §3
# STZ-induced diabetes rat [6] = assay: STZ-induced diabetes rats: immune activity effect (thymus, spleen); type: in vivo, Sprague-Dawley (SD) rats; details: vs STZ control; single treated: metformin 500 mg/kg, YMJHT 400 mg/kg; daily 28 days
# Procedure: as §1, §2, §3
# (6) Immune activity effect: thymus and spleen weights and histopathological findings—changes in spleen thickness, the number of white pulps and diameter, changes in thymus lobules and cortex thicknesses
# as §4
# STZ-induced diabetes rat [7] = assay: STZ-induced diabetes rats: body weight and body weight gain; type: in vivo, Sprague-Dawley (SD) rats; details: vs STZ control, YMJHT 400 mg/kg
# Procedure: as §1, §2, §3
# (1) Change in body weight: Body weight gains during diabetes induction and administration of a candidate material for 28 days
# STZ-induced diabetes rat [8] = assay: STZ-induced diabetes rats: liver protecting effect; type: in vivo, Sprague-Dawley (SD) rats; details: vs STZ control; single treated: metformin 500 mg/kg, YMJHT 400 mg/kg; daily 28 days
# Procedure: as §1, §2, §3
# (3) Liver protecting effect: changes in the liver weight, blood AST and ALT contents, histopathological findings on the liver—(Degeneration rate of the liver: ratio of degenerated liver cells per mm^2 of hepatocyte, number of liver cells: number of liver cells observed per mm^2 of hepatocyte).
# as §4
# in vivo = details: male, SD, rat, plasma, po, 500 mg/kg
# [9] = before administration, single treated groups: metformin 500 mg/kg
# [10] = single treated: metformin 500 mg/kg, daily 28 days
compound,measurement,setting,value
CN(C)C(=N)N=C(N)N [metformin],"Lens damage score, change",STZ-induced diabetes rat [1],−33.33%
same,"Number of blood vessels present in an internal limiting membrane, change",STZ-induced diabetes rat [1],−44.55%
same,"Observer-based scores for cataract, change",STZ-induced diabetes rat [1],−38.89%
same,"Quantitative image scores for cataract, change",STZ-induced diabetes rat [1],−40.56%
same,"Thickness of the damaged part of the lens, change",STZ-induced diabetes rat [1],−46.34%
same,"Thickness of the inner nuclear layer in the retina, change",STZ-induced diabetes rat [1],44.29%
same,"Thickness of the plexiform layer in the retina, change",STZ-induced diabetes rat [1],32.03%
same,"Total thickness of the retina, change",STZ-induced diabetes rat [1],33.45%
same,"Absolute weight of the kidney, change",STZ-induced diabetes rat [2],−21.29%
same,"Blood BUN content, change",STZ-induced diabetes rat [2],−31.69%
same,"Blood creatinine content, change",STZ-induced diabetes rat [2],−31.29%
same,"Number of degenerated glomeruli, change",STZ-induced diabetes rat [2],−36.94%
same,"Number of degenerated renal tubules, change",STZ-induced diabetes rat [2],−29.90%
same,"Relative weight of the kidney, change",STZ-induced diabetes rat [2],−32.41%
same,"Catalase activity in the renal tissue, change",STZ-induced diabetes rat [3],48.59%
same,"Content of the endogenous antioxidant in the renal tissue, GSH, change",STZ-induced diabetes rat [3],64.65%
same,"MDA content in the kidney tissue (lipid peroxidation indicator), change",STZ-induced diabetes rat [3],−32.56%
same,"SOD activity in the renal tissue, change",STZ-induced diabetes rat [3],51.47%
same,"Blood sugar level at 21 days after the STZ administration, change",STZ-induced diabetes rat [4]; [9],1.68%
same,"Blood sugar level at 28 days after the STZ administration, change",STZ-induced diabetes rat [4]; [10],−27.25%
same,"Blood sugar variation from 21 days after the STZ administration to 28 days after the administration of a candidate material, change",STZ-induced diabetes rat [4]; [10],−59.39%
same,"Mean diameters of the pancreatic islets, change",STZ-induced diabetes rat [4]; [10],97.80%
same,"Numbers of insulin immunoreactive cells in the pancreatic islet, change",STZ-induced diabetes rat [4]; [10],202.99%
same,"Numbers of pancreatic islets per unit area, change",STZ-induced diabetes rat [4]; [10],120.93%
same,"Numbers of the glucagon immunoreactive cells in the pancreatic islet, change",STZ-induced diabetes rat [4]; [10],−27.78%
same,"Pancreas absolute weights, change",STZ-induced diabetes rat [4]; [10],7.95%
same,"Relative pancreas weights with respect to the body weight, change",STZ-induced diabetes rat [4]; [10],−7.49%
same,"Blood HDL content, change",STZ-induced diabetes rat [5],27.12%
same,"Blood LDL content, change",STZ-induced diabetes rat [5],−29.08%
same,"Total cholesterol content in blood, change",STZ-induced diabetes rat [5],−30.57%
same,"Triglyceride content in blood, change",STZ-induced diabetes rat [5],−29.72%
same,"Absolute weight of the spleen, change",STZ-induced diabetes rat [6],31.35%
same,"Absolute weight of the thymus, change",STZ-induced diabetes rat [6],73.03%
same,"Mean diameter of the white pulp, change",STZ-induced diabetes rat [6],101.18%
same,"Number of white pulps per unit area (100 mm^2), change",STZ-induced diabetes rat [6],76.53%
same,"Relative weight of the spleen, change",STZ-induced diabetes rat [6],12.17%
same,"Relative weight of the thymus, change",STZ-induced diabetes rat [6],50.71%
same,"Total thickness of the spleen, change",STZ-induced diabetes rat [6],36.43%
same,"Total thickness of the thymus cortex, change",STZ-induced diabetes rat [6],78.00%
same,"Total thickness of the thymus lobules, change",STZ-induced diabetes rat [6],198.88%
same,"Body weight gains during the diabetes induction, change",STZ-induced diabetes rat [7]; [9],45.45%
same,"Body weight gains during the 28-day administration, change",STZ-induced diabetes rat [7]; [10],193.31%
same,"Absolute weight of the liver, change",STZ-induced diabetes rat [8],−14.38%
same,"Blood ALT content, change",STZ-induced diabetes rat [8],−32.72%
same,"Blood AST content, change",STZ-induced diabetes rat [8],−32.82%
same,"Hepatic degeneration rate, change",STZ-induced diabetes rat [8],−29.61%
same,"Number of mean hepatocytes per unit area, change",STZ-induced diabetes rat [8],60.58%
same,"Relative weight of the liver, change",STZ-induced diabetes rat [8],−27.69%
same,Cmax,in vivo,20200 ± 3420 ng/mL

# Source: US10765647B2, “Composition for treating diabetes, containing extract of yukmijihwangtang” (COMPREHENSIVE AND INTEGRATIVE MEDICINE INSTITUTE, priority 2013, dated 2020)
